The compounds below were run on NCI-H358 cells (assay: Inhibitory effect on proliferation of NCI-H358 cells (CellTiter-Glo, 72 h)). Details: not given.
Assay type: cell-based, human
Text: Inhibitory effect of compounds on the proliferation of […] cells • 1. Experimental principle: NCI-H358 cell is human non-small cell lung cancer cell line expressing KRAS G12C. […] Test materials: NCI-H358 cells were purchased from ATCC; CellTiter-GloR was purchased from Promega (item: G7571); RPMI-1640 was purchased from ATCC (item: 30-2001): fetal bovine serum (FBS) was purchased from EXCELL (item: FND500); Penicillin-streptomycin was purchased from Gibco (item: 15140-122); 0.25% trypsin-ethylenediaminetetraacetic acid digestive juice (Trypsin-EDTA) was purchased from Gibco (item: 25200-072); dimethyl sulfoxide (DMSO) was purchased from Sigma (item: D2650); 96-well plate was purchased from Corning (item: 3610); Incubator was purchased from Thermo (model: 3111); Inverted microscope was purchased from Nikon (item: TS-100); Automatic cell counter was purchased from Life technologies (model: Countess II); Enzyme plate reader was purchased from PerkinElmer (model: Envision); The data processing software was GraphPad Prism 5.0. • 3. Test method:
Cells in logarithmic growth phase were resuspended in growth medium (RPMI-1640+10% FBS) and diluted to target density ([…]). The above cell suspension was inoculated into 96-well plates at 100 μL per well; incubated overnight in a 37° C., 5% CO2 incubator. Medium was used as background control.
The test compound was dissolved in DMSO to prepare a stock solution at a concentration of 10 mmol/L. The stock solution was first diluted to 2 mmol/L with DMSO, and then diluted in 3-fold gradient for a total of 10 concentrations. 3 μL of each concentration of the above solution was taken and diluted with 197 μL of growth medium. […] at 50 μL/well in the 96-well plate. The cells to which the test compound was added were incubated in a 37° C., 5% CO2 incubator for 72 hours. The 96-well plate was equilibrated at room temperature, and 40 μL CellTiter-Glo reagent was added to each well. Then, the plate was mixed on the vortex for 2 minutes, incubated at room temperature for 60 minutes. The luminescence value was read on an EnVision microplate reader, and the IC50 of the compound was calculated using the GraphPad Prism 5.0 software.

First: CN(C)C/C=C/C(=O)N1CCN(c2nc(OC[C@@H]3CCCN3C)nc3c2CN(C)C2(CCc4cccc(F)c42)C3)C[C@@H]1CC#N (stereo partly shown) [Formate of 15]
Second: CN1CCC[C@H]1COc1nc2c(c(N3CCN(C(=O)/C=C/CF)[C@@H](CC#N)C3)n1)CN(C)C1(CCc3ccccc31)C2 (stereo partly shown) [Compound 14]
The IC50 of the first is lower: 0.1 to 1 µM for the first, 1 to 10 µM for the second.

First: C=CC(=O)N1CCN(c2nc(OC[C@@H]3CCCN3C)nc3c2CN(C)C2(CCCc4ccccc42)C3)C[C@@H]1CC#N (stereo partly shown) [Formate of 20]
Second: C=CC(=O)N1CCN(c2nc(OC[C@@H]3CCCN3C)nc3c2CN(C)C2(CCOc4ccccc42)C3)C[C@@H]1CC#N (stereo partly shown) [Formate of 22]
The IC50 of the first is lower: less than 0.1 µM for the first, 0.1 to 1 µM for the second. The first is the more potent here.

C=CC(=O)N1CCN(c2nc(OC[C@@H]3CCCN3C)nc3c2CN(C)C2(CCc4ccccc42)C3)[C@@H](C)C1 (stereo partly shown) [Formate of 4] and C=CC(=O)N1CCN(c2nc(OC[C@@H]3CCCN3C)nc3c2CN(C)C2(CCc4ccc(F)cc42)C3)C[C@@H]1CC#N (stereo partly shown) [Formate of 11] fall in the same range of IC50: 1 to 10 µM for the first, 1 to 10 µM for the second.

Compared with C=CC(=O)N1CCN(c2nc(OC[C@@H]3CCCN3C)nc3c2CN(C)C2(CCc4cccc(Cl)c42)C3)C[C@@H]1CC#N (stereo partly shown) [Formate of 18], C=CC(=O)N1CCN(c2nc(OC[C@@H]3CCCN3C)nc3c2CN(C)C2(CCc4c(OC)cccc42)C3)C[C@@H]1CC#N (stereo partly shown) [Formate of 24] is higher in IC50: less than 0.1 µM for the first, 0.1 to 1 µM for the second.

First: C=CC(=O)N1CCN(c2nc(OC[C@@]34CCCN3C[C@H](F)C4)nc3c2CN(C)C2(CCc4cccc(Cl)c42)C3)C[C@@H]1CC#N (stereo partly shown) [Formate of 34]
Second: C=CC(=O)N1CCN(c2nc(OC[C@@H]3CCCN3C)nc3c2CNC2(CCc4cccc(F)c42)C3)C[C@@H]1CC#N (stereo partly shown) [Formate of 10]
The IC50 of the first is lower: less than 0.1 µM for the first, 0.1 to 1 µM for the second.

Same assay, conditions: Homo sapiens

First: C=C(F)C(=O)N1CCN(c2nc(OC[C@@]34CCCN3C[C@H](F)C4)nc3c2CN(C)C2(CCc4cccc(Cl)c42)C3)C[C@@H]1CC#N (stereo partly shown) [Compound 35]
Second: C=CC(=O)N1CCN(c2nc(OC[C@@H]3CCCN3C)nc3c2CN(C)C2(CCc4ccc(Cl)cc42)C3)C[C@@H]1CC#N (stereo partly shown) [Compound 5]
The IC50 of the first is lower: less than 0.1 µM for the first, 0.1 to 1 µM for the second. The first is the more potent here.

C=CC(=O)N1CCN(c2nc(OCC3CCCN3C)nc3c2CN(C)C2(CCc4ccccc42)C3)CC1 (stereo not shown) [Compound 1] gave an IC50 of 1 to 10 µM.
